Test results published in EP4635950A1, “NOVEL CRYSTAL FORM OF GLP-1 RECEPTOR AGONIST, METHOD FOR PREPARING SAME, PHARMACEUTICAL COMPOSITION THEREOF, AND USE THEREOF” (Hangzhou Zhongmeihuadong Pharmaceutical Co., Ltd., priority 2022, dated 2024).
“Also recorded” adds a separate entry of the source.

Assays:
[1] = Crystal form stability on drying or sealed storage; type: physicochemical
Source text: The 4 metastable crystal forms described in Example 4 had lower crystal form stability than each crystal form described in Example 3.

[2] = Crystal form change on heating in the DSC test; type: physicochemical
[3] = heated to 120 °C for 10 minutes

crystal form change on heating [2, 3]	Structure (SMILES)	other results
	O=C(O)c1ccc2nc(CN3CCC(c4cccc(OCc5ccc(C6COC6)cc5F)n4)CC3)n(C[C@@H]3CCO3)c2c1 [Crystal Form B, (S)-2-((4-(6-((2-fluoro-4-(oxetan-3-yl)benzyl)oxy)pyridin-2-yl)piperidin-1-yl)methyl)-1-(oxetan-2-ylmethyl)-1H-benzo[d]imidazole-6-carboxylic acid]	crystal form change after drying ([1]; dried at 50°C for 3 hours): transforms into an amorphous form; also recorded: convert into an amorphous form
	O=C(O)c1ccc2nc(CN3CCC(c4cccc(OCc5ccc(C6COC6)cc5F)n4)CC3)n(C[C@@H]3CCO3)c2c1 [Crystal Form C, (S)-2-((4-(6-((2-fluoro-4-(oxetan-3-yl)benzyl)oxy)pyridin-2-yl)piperidin-1-yl)methyl)-1-(oxetan-2-ylmethyl)-1H-benzo[d]imidazole-6-carboxylic acid]	crystal form change on heating ([2]; heated to 110°C for 5 minutes): transforms into an amorphous form
converts into an amorphous form	O=C(O)c1ccc2nc(CN3CCC(c4cccc(OCc5ccc(C6COC6)cc5F)n4)CC3)n(C[C@@H]3CCO3)c2c1 [Crystal Form D, (S)-2-((4-(6-((2-fluoro-4-(oxetan-3-yl)benzyl)oxy)pyridin-2-yl)piperidin-1-yl)methyl)-1-(oxetan-2-ylmethyl)-1H-benzo[d]imidazole-6-carboxylic acid]	
converts into an amorphous form	O=C(O)c1ccc2nc(CN3CCC(c4cccc(OCc5ccc(C6COC6)cc5F)n4)CC3)n(C[C@@H]3CCO3)c2c1 [Crystal Form E, (S)-2-((4-(6-((2-fluoro-4-(oxetan-3-yl)benzyl)oxy)pyridin-2-yl)piperidin-1-yl)methyl)-1-(oxetan-2-ylmethyl)-1H-benzo[d]imidazole-6-carboxylic acid]	
	O=C(O)c1ccc2nc(CN3CCC(c4cccc(OCc5ccc(C6COC6)cc5F)n4)CC3)n(C[C@@H]3CCO3)c2c1 [Crystal Form F, (S)-2-((4-(6-((2-fluoro-4-(oxetan-3-yl)benzyl)oxy)pyridin-2-yl)piperidin-1-yl)methyl)-1-(oxetan-2-ylmethyl)-1H-benzo[d]imidazole-6-carboxylic acid]	crystal form change after storage ([1]; sealed conditions at room temperature for 21 days): transforms into Crystal Form D; also recorded: transformed into stable Crystal Form D
	O=C(O)c1ccc2nc(CN3CCC(c4cccc(OCc5ccc(C6COC6)cc5F)n4)CC3)n(C[C@@H]3CCO3)c2c1 [Crystal Form H, (S)-2-((4-(6-((2-fluoro-4-(oxetan-3-yl)benzyl)oxy)pyridin-2-yl)piperidin-1-yl)methyl)-1-(oxetan-2-ylmethyl)-1H-benzo[d]imidazole-6-carboxylic acid]	crystal form change after drying ([1]; dried at 50°C for 2 hours): transforms into a weakly crystalline state; also recorded: showed a weak crystalline state
converts into an amorphous form	O=C(O)c1ccc2nc(CN3CCC(c4cccc(OCc5ccc(C6COC6)cc5F)n4)CC3)n(C[C@@H]3CCO3)c2c1 [Crystal Form Ix, (S)-2-((4-(6-((2-fluoro-4-(oxetan-3-yl)benzyl)oxy)pyridin-2-yl)piperidin-1-yl)methyl)-1-(oxetan-2-ylmethyl)-1H-benzo[d]imidazole-6-carboxylic acid]	
transforms into an amorphous form	O=C(O)c1ccc2nc(CN3CCC(c4cccc(OCc5ccc(C6COC6)cc5F)n4)CC3)n(C[C@@H]3CCO3)c2c1 [Crystal Form J, (S)-2-((4-(6-((2-fluoro-4-(oxetan-3-yl)benzyl)oxy)pyridin-2-yl)piperidin-1-yl)methyl)-1-(oxetan-2-ylmethyl)-1H-benzo[d]imidazole-6-carboxylic acid]	
	O=C(O)c1ccc2nc(CN3CCC(c4cccc(OCc5ccc(C6COC6)cc5F)n4)CC3)n(C[C@@H]3CCO3)c2c1 [Crystal Form K, (S)-2-((4-(6-((2-fluoro-4-(oxetan-3-yl)benzyl)oxy)pyridin-2-yl)piperidin-1-yl)methyl)-1-(oxetan-2-ylmethyl)-1H-benzo[d]imidazole-6-carboxylic acid]	crystal form change on heating ([2]; heated to 110 °C for 10 minutes): transforms into an amorphous form
transforms into an amorphous form	O=C(O)c1ccc2nc(CN3CCC(c4cccc(OCc5ccc(C6COC6)cc5F)n4)CC3)n(C[C@@H]3CCO3)c2c1 [Crystal Form L, (S)-2-((4-(6-((2-fluoro-4-(oxetan-3-yl)benzyl)oxy)pyridin-2-yl)piperidin-1-yl)methyl)-1-(oxetan-2-ylmethyl)-1H-benzo[d]imidazole-6-carboxylic acid]	
	O=C(O)c1ccc2nc(CN3CCC(c4cccc(OCc5ccc(C6COC6)cc5F)n4)CC3)n(C[C@@H]3CCO3)c2c1 [Crystal Form M, (S)-2-((4-(6-((2-fluoro-4-(oxetan-3-yl)benzyl)oxy)pyridin-2-yl)piperidin-1-yl)methyl)-1-(oxetan-2-ylmethyl)-1H-benzo[d]imidazole-6-carboxylic acid]	crystal form change on heating ([2]; heated to 105 °C for 10 minutes): transforms into an amorphous form
transforms into an amorphous form	O=C(O)c1ccc2nc(CN3CCC(c4cccc(OCc5ccc(C6COC6)cc5F)n4)CC3)n(C[C@@H]3CCO3)c2c1 [Crystal Form N, (S)-2-((4-(6-((2-fluoro-4-(oxetan-3-yl)benzyl)oxy)pyridin-2-yl)piperidin-1-yl)methyl)-1-(oxetan-2-ylmethyl)-1H-benzo[d]imidazole-6-carboxylic acid]	
transforms into an amorphous form	O=C(O)c1ccc2nc(CN3CCC(c4cccc(OCc5ccc(C6COC6)cc5F)n4)CC3)n(C[C@@H]3CCO3)c2c1 [Crystal Form O, (S)-2-((4-(6-((2-fluoro-4-(oxetan-3-yl)benzyl)oxy)pyridin-2-yl)piperidin-1-yl)methyl)-1-(oxetan-2-ylmethyl)-1H-benzo[d]imidazole-6-carboxylic acid]	
	O=C(O)c1ccc2nc(CN3CCC(c4cccc(OCc5ccc(C6COC6)cc5F)n4)CC3)n(C[C@@H]3CCO3)c2c1 [Crystal Form P, (S)-2-((4-(6-((2-fluoro-4-(oxetan-3-yl)benzyl)oxy)pyridin-2-yl)piperidin-1-yl)methyl)-1-(oxetan-2-ylmethyl)-1H-benzo[d]imidazole-6-carboxylic acid]	crystal form change after drying ([1]; dried at 50°C for 3.5 hours): transforms into an amorphous form; also recorded: convert into an amorphous form
